PubChem BioAssay AID328 (DTP/NCI, 2004)
Several values for one entry are separate records, joined by “and”; a condition that tells them apart may be missing. Equal entries are not always repeated. Toxic doses and inconclusive results are not listed.

Assays:
[1] = system: BDF1 mice, P388 leukemia ip; assay: NCI In Vivo Anticancer Drug Screen. Data for tumor model P388 Leukemia (intraperitoneal) in B6D2F1 (BDF1) mice; conditions: endpoint: mean survival time, higher = longer survival
Outline: (§1)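 T/C = treated-group survival ÷ vehicle-control survival; tumour transplanted into mice before dosing.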

[2] = system: BDF1 mice, P388 leukemia ip, median survival T/C; assay: as above; conditions: endpoint: median survival time, higher = longer survival
Outline: as §1

## CCN(CC)CCCC(C)NC(=O)c1cccc2c(N)cccc12 (stereo not given)
[1]; dose: 25.0 mg/kg/injection, schedule: Q01DX009 (ip), vehicle: water
  T/C: 98 % of control
[1]; dose: 50.0 mg/kg/injection, schedule: Q01DX009 (ip), vehicle: water
  T/C: 106 % of control
[1]; dose: 100.0 mg/kg/injection, schedule: Q01DX009 (ip), vehicle: water
  T/C: 93 % of control
[1]; dose: 200.0 mg/kg/injection, schedule: Q01DX009 (ip), vehicle: water
  T/C: 91 % of control
[1]; dose: 400.0 mg/kg/injection, schedule: Q01DX009 (ip), vehicle: water
  T/C: 110 % of control
[2]; dose: 25.0 mg/kg/injection, schedule: Q04DX003 (ip), vehicle: water
  T/C: 91 % of control
[2]; dose: 50.0 mg/kg/injection, schedule: Q04DX003 (ip), vehicle: water
  T/C: 106 % of control
[2]; dose: 100.0 mg/kg/injection, schedule: Q04DX003 (ip), vehicle: water
  T/C: 97 % of control
[2]; dose: 200.0 mg/kg/injection, schedule: Q04DX003 (ip), vehicle: water
  T/C: 100 % of control
[2]; dose: 400.0 mg/kg/injection, schedule: Q04DX003 (ip), vehicle: water
  T/C: 104 % of control

## CCC1(O)CC(OC2CC(N(C)C)C(OC3CC4OC5CC(=O)C(C)OC5OC4C(C)O3)C(C)O2)c2c(cc3c(c2O)C(=O)c2c(O)ccc(O)c2C3=O)C1C(=O)OC (stereo not given)
[1]; dose: 0.09 mg/kg/injection, schedule: Q01DX010 (ip), vehicle: saline
  T/C: 111 % of control
[1]; dose: 0.38 mg/kg/injection, schedule: Q01DX010 (ip), vehicle: saline
  T/C: 95 % of control
[1]; dose: 1.5 mg/kg/injection, schedule: Q01DX010 (ip), vehicle: saline
  T/C: 87 % of control
[2]; dose: 0.75 mg/kg/injection, schedule: Q01DX001 (ip), vehicle: saline
  T/C: 104 % of control
[2]; dose: 0.86 mg/kg/injection, schedule: Q04DX003 (ip), vehicle: water
  T/C: 121 % of control
[2]; dose: 1.25 mg/kg/injection, schedule: Q01DX001 (ip), vehicle: saline
  T/C: 114 % of control
[2]; dose: 1.3 mg/kg/injection, schedule: Q04DX003 (ip), vehicle: water
  T/C: 157 % of control
[2]; dose: 1.5 mg/kg/injection, schedule: Q01DX001 (ip), vehicle: saline
  T/C: 109 % of control
[2]; dose: 1.73 mg/kg/injection, schedule: Q04DX003 (ip), vehicle: water
  T/C: 155 % of control
[2]; dose: 2.16 mg/kg/injection, schedule: Q04DX003 (ip), vehicle: water
  T/C: 191 % of control
[2]; dose: 2.4 mg/kg/injection, schedule: Q04DX003 (ip), vehicle: water
  T/C: 165 % of control
[2]; dose: 5.0 mg/kg/injection, schedule: Q01DX001 (ip), vehicle: saline
  T/C: 166 % of control
[2]; dose: 10.0 mg/kg/injection, schedule: Q01DX001 (ip), vehicle: saline
  T/C: 195 % of control

## CC1=C(C)C(=O)O[C@@H]([C@](C)(O)[C@]2(O)CC[C@@]3(O)[C@@H]4C[C@H]5O[C@]56CC=CC(=O)[C@]6(C)[C@H]4CC[C@]23C)C1
[1]; dose: 50.0 mg/kg/injection, schedule: Q02DX003 (ip), vehicle: saline
  T/C: 114 % of control
[1]; dose: 100.0 mg/kg/injection, schedule: Q02DX003 (ip), vehicle: saline
  T/C: 117 % of control

## CCCCCCCC[N+](C)(CCCCCCCC)CCCCCCCC
[2]; dose: 0.12 mg/kg/injection, schedule: Q01DX009 (ip), vehicle: saline
  T/C: 108 % of control
[2]; dose: 0.18 mg/kg/injection, schedule: Q01DX009 (ip), vehicle: saline
  T/C: 116 % of control
[2]; dose: 0.28 mg/kg/injection, schedule: Q01DX009 (ip), vehicle: saline
  T/C: 166 % of control
[2]; dose: 0.42 mg/kg/injection, schedule: Q01DX009 (ip), vehicle: saline
  T/C: 95 % of control and 100 % of control
[2]; dose: 0.43 mg/kg/injection, schedule: Q01DX009 (ip), vehicle: saline
  T/C: 155 % of control
[2]; dose: 0.96 mg/kg/injection, schedule: Q01DX009 (ip), vehicle: saline
  T/C: 108 % of control and 121 % of control
[2]; dose: 1.0 mg/kg/injection, schedule: Q01DX009 (ip), vehicle: saline
  T/C: 100 % of control
[2]; dose: 1.3 mg/kg/injection, schedule: Q01DX009 (ip), vehicle: saline
  T/C: 112 % of control
[2]; dose: 2.0 mg/kg/injection, schedule: Q01DX009 (ip), vehicle: saline
  T/C: 100 % of control
[2]; dose: 2.1 mg/kg/injection, schedule: Q01DX009 (ip), vehicle: saline
  T/C: 120 % of control
[2]; dose: 2.32 mg/kg/injection, schedule: Q04DX003 (ip), vehicle: saline
  T/C: 104 % of control
[2]; dose: 3.1 mg/kg/injection, schedule: Q01DX009 (ip), vehicle: saline
  T/C: 95 % of control
[2]; dose: 4.65 mg/kg/injection, schedule: Q04DX003 (ip), vehicle: saline
  T/C: 95 % of control
[2]; dose: 6.5 mg/kg/injection, schedule: Q01DX001 (ip), vehicle: saline
  T/C: 100 % of control
[2]; dose: 13.0 mg/kg/injection, schedule: Q01DX001 (ip), vehicle: saline
  T/C: 100 % of control
